Results reported in paper PMC8146637, “Enhanced Bioavailability and Efficacy of Silymarin Solid Dispersion in Rats with Acetaminophen-Induced Hepatotoxicity” (Pharmaceutics, 2021).

Experiments:
[1] = Intestinal permeability of silybin, Ussing chamber; conditions: male, Wistar, rat, pH 7.4
Method: Male Wistar rats weighing 225–270 g (eight weeks old, n = 28) were purchased from Samtako Co. (Osan, Korea). Rats were housed in a 12-h light/dark cycle, and food and water were supplied ad libitum for one week prior to animal studies. […] Rats were fasted for 16 h, but had free access to water before study commencement. […] A proximal jejunum section (approximately 10 cm) was excised and washed in prewarmed HBSS (pH 7.4). Segments were mounted on a tissue holder of a Navicyte Easy Mount Ussing Chamber (Warner Instruments, Holliston, MA, USA), with a surface area of 0.76 cm², and acclimated in HBSS for 15 min with continuous oxygenation (95% O₂/5% CO₂ gas). […]
To investigate whether efflux transporters were involved in this process, an apical to basal (A to B) and a basal to apical (B to A) transport of 20 μM silybin in the presence of representative inhibitors of P-gp, MRPs, and BCRPs such as 20 μM cyclosporine A (CsA), 100 μM MK-571, and 20 μM fumitremorgin C (FTC), respectively, were measured in a proximal jejunum section from control rats (n = 4) [45, 46]. The effects of TPGS (0.01–1 mg/mL) on silybin permeability were also measured in a proximal jejunum section from control rats (n = 4) using the above method. […]

[2] = system: rat jejunal segments; test: Lucifer yellow permeability (intestinal integrity), Ussing chamber; format: in vitro ADME
Method: Segments were mounted on a tissue holder of a […] […] Lucifer yellow fluorescence in 200 μL sample aliquots was measured using a fluorescence spectrophotometer (Infinite 200 PRO, Tecan, Switzerland) at an excitation wavelength of 425 nm and emission wavelength of 535 nm.

[3] = Effect of various excipients on silymarin solubility; format: physicochemical
Method: The effect of various excipients on the silymarin solubility was measured. […] Mixtures were centrifuged at 16,000× g for 10 min and supernatants filtered through a membrane filter (pore size; 0.22 μm). Filtrates were diluted in 85% acetonitrile and silybin concentrations analyzed using a liquid chromatography-tandem mass spectrometry (LC-MS/MS) system.

[4] = in vivo; cited from earlier work
[5] = Liver distribution of silybin after repeated oral administration in APAP-induced hepatotoxic rats; conditions: rat, in vivo
Method: To investigate the liver distribution of silymarin and silymarin-SD, blood samples were collected from the abdominal artery at 0.5, 1, 2, 4, and 24 h after the repeated oral administration of silymarin (20 mg/kg as silybin, n = 20) or silymarin-SD (20 mg/kg as silybin, n = 20), according to the dosing schedule. Immediately after blood sampling, the liver was excised, rinsed in saline, and homogenized in nine volumes of saline, using a tissue homogenizer. Aliquots (50 μL) of 10% liver homogenate samples were stored at −80 °C for silybin assay.
Silybin concentrations in plasma and 10% liver homogenate samples were analyzed. Samples (100 μL) were added to 300 μL IS (naringenin, 20 ng/mL in acetonitrile) and the mixture was vigorously mixed for 10 min, followed by centrifugation at 16,000× g for 5 min. Supernatant aliquots (5 μL) were directly injected into an LC-MS/MS system.

Row | Compound | increase in silymarin solubility in the presence of excipient [3] | further results
1 | COc1cc(C2Oc3cc([C@H]4Oc5cc(O)cc(O)c5C(=O)[C@@H]4O)ccc3OC2CO)ccc1O (stereo partly shown) [silybin, Silybin] |  | efflux ratio at 2 h, 20 μM [1]: 5.8
2 | Lucifer yellow [reference compound] |  | Papp,AB of Lucifer yellow ([2]; intestinal segment of APAP-induced hepatotoxic rats): 0.28 ×10⁻⁶ cm/s
3 | Poloxamer 407 | 2~3 fold | 
4 | Silymarin |  | bioavailability [4]: 23–47%; Papp,AB of Lucifer yellow in the presence of silymarin or silymarin-SD [2]: not different; time course of liver silybin concentration [5]: decreased sharply for 4 h
5 | Tween 80 | 2~3 fold | 
6 | hydroxypropyl cellulose [HPC] | less than 1.5 fold | 
7 | pluronic F127 | 2~3 fold | 
8 | polyvinylpyrrolidone [PVP] | highest increase | 
